In patent publication US9532970B2, “Compositions for anti-inflammatory, antioxidant effects and improved respiratory function by specific histone deacetylase inhibition” (priority 2014, dated 2017):
Where two headings read alike, the source gives them in different places.

Tested on: Horse PBMC

**Q.** For `C[S@@+]([O-])CCCCN=C=S` [LSF, (R)-1-Isothiocyanato-4-(methylsulfinyl)butane], which NES (MSigDB gene set MCLACHLAN DENTAL CARIES UP) is on record?
**A.** −5.67

**Q.** And the NES (MSigDB gene set MEISSNER BRAIN HCP WITH H3K4ME3 AND H3K27ME3)?
**A.** −5.6

**Q.** And the NES (MSigDB gene set MILI PSEUDOPODIA HAPTOTAXIS UP)?
**A.** 4.81

**Q.** What about the NES (MSigDB gene set MODULE 45) of the same compound?
**A.** −5.9

**Q.** And the NES (MSigDB gene set MODULE 46)?
**A.** −6.22

**Q.** What about the NES (MSigDB gene set MODULE 75) of the same compound?
**A.** −5.9

**Q.** What about the NES (MSigDB gene set MODULE 84) of the same compound?
**A.** −7.87

**Q.** And the NES (MSigDB gene set MRNA METABOLIC PROCESS)?
**A.** 4.19

**Q.** What about the NES (MSigDB gene set REACTOME GENERIC TRANSCRIPTION PATHWAY) of the same compound?
**A.** 4.19

**Q.** And the NES (MSigDB gene set RNA PROCESSING)?
**A.** 4.02

**Q.** And the NES (MSigDB gene set SHEN SMARCA2 TARGETS UP)?
**A.** 5.39

**Q.** And the NES (MSigDB gene set V$NFMUE1 Q6)?
**A.** 3.98

**Q.** And the NES (MSigDB gene set WALLACE PROSTATE CANCER RACE UP)?
**A.** −5.66

**Q.** What about the NES (Reactome gene set ACTIVATION OF KAINATE RECEPTORS UPON GLUTAMATE BINDING) of the same compound?
**A.** −2.56

**Q.** What about the NES (Reactome gene set ANTIGEN PROCESSING UBIQUITINATION PROTEASOME DEGRADATION) of the same compound?
**A.** 2.7

**Q.** What about the NES (Reactome gene set ASSOCIATION OF TRIC CCT WITH TARGET PROTEINS DURING BIOSYNTHESIS) of the same compound?
**A.** 2.62

**Q.** What about the NES (Reactome gene set CLASS A1 RHODOPSIN LIKE RECEPTORS) of the same compound?
**A.** −2.68

**Q.** And the NES (Reactome gene set CLEAVAGE OF GROWING TRANSCRIPT IN THE TERMINATION REGION)?
**A.** 3.33

**Q.** And the NES (Reactome gene set CYTOKINE SIGNALLING IN IMMUNE SYSTEM)?
**A.** −2.84

**Q.** And the NES (Reactome gene set DOWNSTREAM SIGNALING EVENTS OF B CELL RECEPTOR BCR)?
**A.** 3.12

**Q.** And the NES (Reactome gene set G ALPHA1213 SIGNALLING EVENTS)?
**A.** −2.54

**Q.** And the NES (Reactome gene set G ALPHA I SIGNALLING EVENTS)?
**A.** −2.41

**Q.** And the NES (Reactome gene set G ALPHA SIGNALLING EVENTS)?
**A.** −2.82

**Q.** What about the NES (Reactome gene set GABA RECEPTOR ACTIVATION) of the same compound?
**A.** −2.39

**Q.** What about the NES (Reactome gene set GENERIC TRANSCRIPTION PATHWAY) of the same compound?
**A.** 4.23

**Q.** What about the NES (Reactome gene set GPCR DOWNSTREAM SIGNALING) of the same compound?
**A.** −3.63

**Q.** And the NES (Reactome gene set GPCR LIGAND BINDING)?
**A.** −2.67

**Q.** And the NES (Reactome gene set HIV LIFE CYCLE)?
**A.** 2.41

**Q.** What about the NES (Reactome gene set IMMUNOREGULATORY INTERACTIONS BETWEEN A LYMPHOID AND A NON LYMPHOID CELL) of the same compound?
**A.** −3.37

**Q.** What about the NES (Reactome gene set INTERFERON ALPHA BETA SIGNALING) of the same compound?
**A.** −4

**Q.** What about the NES (Reactome gene set INTERFERON GAMMA SIGNALING) of the same compound?
**A.** −3.9

**Q.** What about the NES (Reactome gene set INTERFERON SIGNALING) of the same compound?
**A.** −3.18

**Q.** What about the NES (Reactome gene set LATE PHASE OF HIV LIFE CYCLE) of the same compound?
**A.** 2.44

**Q.** And the NES (Reactome gene set MHC CLASS II ANTIGEN PRESENTATION)?
**A.** −2.47

**Q.** And the NES (Reactome gene set MRNA 3 END PROCESSING)?
**A.** 3.5

**Q.** What about the NES (Reactome gene set MRNA PROCESSING) of the same compound?
**A.** 3.68

**Q.** What about the NES (Reactome gene set MRNA SPLICING) of the same compound?
**A.** 3.09

**Q.** What about the NES (Reactome gene set OPIOID SIGNALLING) of the same compound?
**A.** −2.55

**Q.** And the NES (Reactome gene set PEPTIDE CHAIN ELONGATION)?
**A.** −2.43

**Q.** And the NES (Reactome gene set PI3K EVENTS IN ERBB2 SIGNALING)?
**A.** 2.49

**Q.** What about the NES (Reactome gene set PI3K EVENTS IN ERBB4 SIGNALING) of the same compound?
**A.** 2.52

**Q.** What about the NES (Reactome gene set PIP3 ACTIVATES AKT SIGNALING) of the same compound?
**A.** 2.48

**Q.** What about the NES (Reactome gene set PROCESSING OF CAPPED INTRON CONTAINING PRE MRNA) of the same compound?
**A.** 3.61

**Q.** What about the NES (Reactome gene set RECRUITMENT OF MITOTIC CENTROSOME PROTEINS AND COMPLEXES) of the same compound?
**A.** 2.55

**Q.** And the NES (Reactome gene set REGULATION OF MRNA STABILITY BY PROTEINS THAT BIND AU RICH ELEMENTS)?
**A.** 2.6

**Q.** And the NES (Reactome gene set REGULATION OF ORNITHINE DECARBOXYLASE ODC)?
**A.** 2.45

**Q.** And the NES (Reactome gene set RESPIRATORY ELECTRON TRANSPORT ATP SYNTHESIS BY CHEMIOSMOTIC COUPLING AND HEAT PRODUCTION BY UNCOULPLING PROTEINS)?
**A.** −2.69

**Q.** And the NES (Reactome gene set RNA POL II TRANSCRIPTION)?
**A.** 3.32

**Q.** What about the NES (Reactome gene set SIGNALING BY GPCR) of the same compound?
**A.** −3.35

**Q.** What about the NES (Reactome gene set SIGNALING BY RHO GTPASES) of the same compound?
**A.** −2.87

**Q.** What about the NES (Reactome gene set TCA CYCLE AND RESPIRATORY ELECTRON TRANSPORT) of the same compound?
**A.** −2.8

**Q.** What about the NES (Reactome gene set TRANSCRIPTION) of the same compound?
**A.** 3.25

**Q.** And the NES (Reactome gene set TRANSPORT OF MATURE TRANSCRIPT TO CYTOPLASM)?
**A.** 3.02
